The target of one assay is T1, acetylcholinesterase (Rattus norvegicus, UniProt P37136).
T1 construct: Wistar rat brain was homogenized in 10% (w/v) of ice-cold Tris-buffered saline; from tissue; host or cells: Wistar rat brain homogenate, 10,000 g supernatant
T1 sequence (P37136 32-614): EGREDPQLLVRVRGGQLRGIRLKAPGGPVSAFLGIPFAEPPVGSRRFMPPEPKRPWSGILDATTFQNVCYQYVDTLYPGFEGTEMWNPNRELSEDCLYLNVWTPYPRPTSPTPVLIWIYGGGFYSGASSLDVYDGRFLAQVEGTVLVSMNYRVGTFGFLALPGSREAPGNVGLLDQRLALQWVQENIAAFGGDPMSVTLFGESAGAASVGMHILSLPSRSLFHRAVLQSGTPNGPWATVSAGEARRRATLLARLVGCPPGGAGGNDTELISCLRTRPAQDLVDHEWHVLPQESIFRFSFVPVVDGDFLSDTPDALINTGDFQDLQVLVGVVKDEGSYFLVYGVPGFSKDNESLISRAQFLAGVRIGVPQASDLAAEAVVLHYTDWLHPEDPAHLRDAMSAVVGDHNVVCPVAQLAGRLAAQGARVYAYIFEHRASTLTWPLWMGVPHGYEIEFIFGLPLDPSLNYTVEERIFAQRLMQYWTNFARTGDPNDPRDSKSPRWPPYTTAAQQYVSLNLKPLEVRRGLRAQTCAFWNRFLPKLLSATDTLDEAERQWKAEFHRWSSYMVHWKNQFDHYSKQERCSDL
Nature of the assay: Acetylcholinesterase activity in rat brain homogenate (Ellman spectrophotometric method). The class given is biochemical, Wistar rat. To be noted: rat brain enzyme preparation. The method, then: Wistar rat brain was homogenized in 10% (w/v) of ice-cold Tris-buffered saline which comprised 10 mM Tris HCl, pH 7.4, 1 mM ethylenediaminetetraacetic acid, 0.9% (w/v) bovine serum albumin. Homogenates were centrifuged at 10,000 g for 10 minutes at 4° C. Supernatants were decanted and stored in aliquots at −70° C. until required.
Briefly, the assay was carried out at room temperature using 0.1 M phosphate buffer, pH 8.0, containing 0.075 M acetylthiocholine iodide and 0.01 M 5,5-dithio-bis-(2-nitrobenzoic acid) (DTNB). The DTNB was prepared in 0.1 M phosphate buffer, pH 7.0, which contained 0.018 M sodium bicarbonate to ensure stability. The reaction was started by the addition of 100 μg of enzyme preparation to a final assay volume of 3.2 ml, and mixed thoroughly. Progress was monitored spectrophotometrically at 412 nm for a continuous period. A blank was run in conjunction with each assay and differed from the test only in that it contained phosphate buffer in place of acetylthiocholine iodide. AchE was assayed in the presence of ethopropazine, which was prepared in ethanol. […] BCHE was measured in the presence of 10^−5 M 1,5-bis-(4-trimethylammoniophenyl)pentan-3-one dibromide (62C47), a specific acetylcholinesterase inhibitor which was added to a final concentration of 10^−5 M. All solutions were freshly prepared and protected from light. Acetylthiocholine, DTNB, 62C47 and ethopropazine were obtained from Sigma Chemical Co., St. Louis, Mo. All other reagents were of the highest grade available from routine suppliers.
Results are expressed as mM acetylthiocholine hydrolysed/100 ug protein/min in Table 1. […] To facilitate comparison between compounds requiring different solubilization vehicles, the relevant results are expressed as percent of the control value in Table 2.

Assay [1] concerns scopolamine-impaired passive avoidance learning. As to the kind of experiment: Reversal of scopolamine-induced amnesia of a passive-avoidance response. To be noted: mean ± SEM (n). The class given is in vivo, Wistar rats. The protocol:
(b) Reversal of Scopolamine-induced Amnesia of a Passive-avoidance Response.
Postnatal day 80 male Wistar rats (300-350 g) were obtained from the Biomedical Facility, University College, Dublin. These were housed singly in a 12 h light/dark cycle with food and water available ad libitum. Animals employed for neurobehavioral studies were maintained and handled in the test environment for 3 days prior to the commencement of studies. All experimental procedures were approved by the Review Committee of the Biomedical Facility of University College, Dublin and were carried out by individuals who held the appropriate license issued by the Ministry of Health.
Animals were trained in a one-trial, step-through, light-dark passive avoidance paradigm. The apparatus consisted of a box measuring 300 mm wide×260 mm deep×270 mm high. The front and top were transparent, allowing observation of behavior inside the apparatus. The box was divided into two compartments, separated by a central shutter which contained a small opening 50 mm wide and 75 mm high. The smaller of the compartments measured 90 mm in width and contained a low power (6 V V) illumination source—the light compartment. The large compartment measured 210 mm in width and was not illuminated. The floor of the training apparatus consisted of a grid of stainless steel bars which could deliver a remotely-controlled, scrambled shock (0.75 mA every 0.5 msec, 5 sec duration) when the animal entered the dark chamber with all four paws. The animals were tested for recall of this inhibitory stimulus prior to sacrifice by placing them into the light compartment and noting their latency to enter the dark compartment. A criterion period of 300 sec was used. The results of this protocol, after administration of saline, scopolamine, test compound, and scopolaine plus test compound, are presented in Table 3.

Setting [2] is: test compound 10 mg/kg + scopolamine 0.8 mg/kg.
The mark [3] stands for this setting: test compound 10 mg/kg alone, 10 mg/kg.
[4] abbreviates: test compound 30 mg/kg + scopolamine 0.8 mg/kg.

Turning to `CN[C@@H]1c2ccccc2CN2CCCC[C@H]12` (relative stereo) [Example 9, trans-N-Methyl-1,3,4,6,11,11a-hexahydro-11-amino-2H-benzo[b]quinolizine], the “Acetylcholinesterase activity in the presence of compound” value (“Acetylcholinesterase activity” below) was 2.00 mM substrate hydrolyzed/min/100 μg protein at acetylcholinesterase (compound concentration 10 μM) and 0.30 mM substrate hydrolyzed/min/100 μg protein at acetylcholinesterase (compound concentration 1.0 mM). Moreover, the entries for the “passive avoidance latency, Test cpd. + scopolamine” value in assay [1] (setting [2]), in assay [1] (setting [4]) and in assay [1] (test compound 45 mg/kg + scopolamine 0.8 mg/kg) were 104 ± 48 (12) seconds, 258 ± 156 (5) seconds and 322 ± 112 (8) seconds, respectively. Moreover, the results for the “passive avoidance latency, Test cpd. alone” value in assay [1] (setting [3]), in assay [1] (test compound 30 mg/kg alone) and in assay [1] (test compound 45 mg/kg alone) were 459 ± 53 (12) seconds, 529 ± 78 (6) seconds and 340 ± 146 (5) seconds, respectively.
In the case of `CN[C@@H]1c2ccccc2CN2CCCC[C@H]12` (relative stereo) [Example 9a, trans-N-Methyl-1,3,4,6,11,11a-hexahydro-11-amino-2H-benzo[b]quinolizine], the “passive avoidance latency, Test cpd. + scopolamine” value in assay [1] (setting [2]) is 216 ± 260 (2) seconds. Besides, the “passive avoidance latency, Test cpd. alone” value in assay [1] (setting [3]) is on record as 328 ± 177 (3) seconds.
For `CN[C@@H]1c2cc(OC)ccc2CN2CCCC[C@H]12` (relative stereo) [Example 10, trans-N-Methyl-9-methoxy-1,3,4,6,11,11a-hexahydro11-amino-2H-benzo[b]quinolizine], the “passive avoidance latency, Test cpd. + scopolamine” value in assay [1] (setting [2]) is recorded as 054 ± 20 (6) seconds. Further, in assay [1] (test compound 10 mg/kg alone), the “passive avoidance latency, Test cpd. alone” value is given as 592 ± 9 (6) seconds.
On to `c1ccc(CN[C@@H]2c3ccccc3CN3CCCC[C@H]23)cc1` (relative stereo) [Example 13, trans-N-Benzyl-1,3,4,6,11,11a-hexahydro-11-amino-2H-benzo[b]quinolizine], for which the “Acetylcholinesterase activity” value was 2.30 mM substrate hydrolyzed/min/100 μg protein at acetylcholinesterase (compound concentration 100 nM), 1.90 mM substrate hydrolyzed/min/100 μg protein on acetylcholinesterase (compound concentration 10 μM) and 0.20 mM substrate hydrolyzed/min/100 μg protein on acetylcholinesterase (compound concentration 1.0 mM). In addition, the “passive avoidance latency, Test cpd. + scopolamine” value in assay [1] (setting [2]) is given as 048 ± 14 (5) seconds. Further, in assay [1] (test compound 10 mg/kg alone), the “passive avoidance latency, Test cpd. alone” value was 410 ± 115 (6) seconds.
Consider `COc1ccc2c(c1)[C@@H](NCc1ccccc1)[C@H]1CCCCN1C2` (relative stereo) [Example 14, trans-N-Benzyl-9-methoxy-1,3,4,6,11,11a-hexahydro-11-amino-2H benzo[b]quinolizine], for which, in assay [1] (setting [4]), the “passive avoidance latency, Test cpd. + scopolamine” value is 211 ± 238 (3) seconds.
Take `N[C@@H]1c2ccccc2CN2CCCC[C@H]12` (relative stereo) [Example 15, trans-1,3,4,6,11,11a-Hexahydro-11-amino-2H-benzo[b]quinolizine]: the results for the “Acetylcholinesterase activity” value at acetylcholinesterase (compound concentration 100 nM), at acetylcholinesterase (compound concentration 10 μM) and on acetylcholinesterase (compound concentration 1.0 mM) were 2.20 mM substrate hydrolyzed/min/100 μg protein, 2.00 mM substrate hydrolyzed/min/100 μg protein and 0.20 mM substrate hydrolyzed/min/100 μg protein, respectively. The figures for the “passive avoidance latency, Test cpd. + scopolamine” value in assay [1] (setting [2]) and in assay [1] (setting [4]) were 148 ± 101 (5) seconds and 132 ± 103 (6) seconds, respectively. The “passive avoidance latency, Test cpd. alone” value was 292 ± 92 (6) seconds in assay [1] (test compound 10 mg/kg alone) and 188 ± 102 (6) seconds in assay [1] (test compound 30 mg/kg alone).
Turning to `CN[C@@H]1c2ccccc2CN2CCCC[C@@H]12` (relative stereo) [Example 17, cis-N-methyl-1,3,4,6,11,11a-hexahydro-2H-benzo[b]quinolizidin-11-amine], the “Acetylcholinesterase activity” value is recorded as 2.00 mM substrate hydrolyzed/min/100 μg protein at acetylcholinesterase (compound concentration 100 nM), 1.90 mM substrate hydrolyzed/min/100 μg protein on acetylcholinesterase (compound concentration 10 μM) and 0.80 mM substrate hydrolyzed/min/100 μg protein at acetylcholinesterase (compound concentration 1.0 mM).
As to `O[C@@H]1c2ccccc2CN2CCCC[C@@H]12` (relative stereo) [Example 18a, cis-1,3,4,6,11,11a-hexahydro-2H-benzo[b]quinolizidin-11-ol], the “Acetylcholinesterase activity” value is on record as 2.30 mM substrate hydrolyzed/min/100 μg protein on acetylcholinesterase (compound concentration 100 nM), 2.10 mM substrate hydrolyzed/min/100 μg protein on acetylcholinesterase (compound concentration 10 μM) and 1.70 mM substrate hydrolyzed/min/100 μg protein at acetylcholinesterase (compound concentration 1.0 mM).
The matching figures for `O[C@@H]1c2ccccc2CN2CCCC[C@H]12` (relative stereo) [Example 18b, trans-1,3,4,6,11,11a-hexahydro-2H-benzo[b]quinolizidin-11-ol]: 2.50 mM substrate hydrolyzed/min/100 μg protein, 1.90 mM substrate hydrolyzed/min/100 μg protein and 1.00 mM substrate hydrolyzed/min/100 μg protein.
For the compound `CC(=O)O[C@@H]1c2ccccc2CN2CCCC[C@@H]12` (relative stereo) [Example 19, O-acetyl-cis-1,3,4,6,11,11a-hexahydro-2H-benzo[b]quinolizidin-11-ol], the “Acetylcholinesterase activity” value on acetylcholinesterase (compound concentration 100 nM) is given as 2.20 mM substrate hydrolyzed/min/100 μg protein; on acetylcholinesterase (compound concentration 10 μM) it was 1.90 mM substrate hydrolyzed/min/100 μg protein; on acetylcholinesterase (compound concentration 1.0 mM), 0.70 mM substrate hydrolyzed/min/100 μg protein.
As for `CC(=O)O[C@@H]1c2ccccc2CN2CCCC[C@H]12` (relative stereo) [Example 20, O-acetyl-trans-1,3,4,6,11,11a-hexahydro-2H-benzo[b]quinolizidin-11-ol], the “Acetylcholinesterase activity” value on acetylcholinesterase (compound concentration 100 nM) was 2.10 mM substrate hydrolyzed/min/100 μg protein; on acetylcholinesterase (compound concentration 10 μM), 1.40 mM substrate hydrolyzed/min/100 μg protein; on acetylcholinesterase (compound concentration 1.0 mM) it was 0.30 mM substrate hydrolyzed/min/100 μg protein.
With `CN[C@@H]1c2ccccc2CN2C(=O)CC[C@@H]12` (relative stereo) [Example 26b, cis-10Methylamino-1,2,3,5,10,10a-hexahydropyrrolo[1,2b]isoquinolin-3-one], in assay [1] (setting [4]), the “passive avoidance latency, Test cpd. + scopolamine” value is recorded as 182 ± 163 (4) seconds. For the same compound, the “passive avoidance latency, Test cpd. alone” value in assay [1] (test compound 30 mg/kg alone) was 600 (3) seconds.
As to `CN[C@@H]1c2ccccc2CN2CCC[C@@H]12` (relative stereo) [Example 34a, cis-10-methylamino-1,2,3,5,10,10a-hexahydropyrrolo[1,2-b]isoquinoline], the “passive avoidance latency, Test cpd. + scopolamine” value in assay [1] (setting [4]) is recorded as 534 ± 76 (3) seconds. The “passive avoidance latency, Test cpd. alone” value in assay [1] (test compound 30 mg/kg alone) is 559 ± 50 (3) seconds.

For the origin of these results see patent US6436954B1, “Benzoquinolizidine and benzoindolizidine derivatives and therapeutic uses thereof” (priority 1998, dated 2002).
